Data on 89 molecules can be found in a melting point compilation (Tetko et al.; mined from patent text by program, amines drawn as free bases though some values may be those of a salt).

Some results are limits rather than exact numbers.

A word on the melting point: it is the temperature of the solid-liquid transition. For `O=C(CCN1CCN(c2cccc(Cl)c2)CC1)N1CC2CC3CC(C2)CC1C3`, the melting point was in the range of 110 to 112 °C. As for `CCOC(=O)c1cn(CC)c2cc(F)c(F)c(C)c2c1=O`, the melting point is 157 to 159 °C. Take `COC(=O)C(=O)c1ccc(OCc2ccc3ccccc3n2)cc1`: the melting point is 109 to 110 °C.

`O=C(O)COc1ccc(OC2CCN(c3ccncc3)CC2)cc1` gave a melting point of 288 to 291 °C. As for `O=C(Nc1ccc(C(=O)NCCCN2CCOCC2)cc1O)C(=O)Nc1cc(Cl)cc(Cl)c1O`, the figure is 227 °C; as for `N#CCCN1CCN(C(c2ccccc2)c2ccccn2)CC1` (centres undefined), 114 to 116 °C.

`Cc1nccn1Cc1ccccc1`: the melting point was in the range of 51 to 53 °C. In turn, `COc1ccc(Cn2ccnc2S)cc1Br` returned a melting point of 188 °C. As to `CCCCCNC(=N)NC(N)=S`, the melting point lay in the range of 98 to 100 °C. With `O=C(O)c1cc(C(F)(F)F)cc(-c2ccc(Cl)c(C(=O)NCC34CC5CC(CC(C5)C3)C4)c2)n1`, the melting point was 220 to 225 °C. In the case of `COc1ccc(-c2nc(S(=O)(=O)CC(F)(F)F)[nH]c2-c2ccc(OC)cc2)cc1` it was 173 to 174 °C. Molecule `CCn1c(=O)c2[nH]c(/C=C/c3cccc(F)c3C)nc2n(CC)c1=O` gave a melting point of more than 270 °C. As for `CON1CCC2(CC1)C(O)=C(c1c(C)cc(C)cc1C)C(=O)N2OC1CCCO1` (centres undefined), the figure is 144 to 146 °C.

In turn, `COc1ccc(-n2c(N)nc3ccccc32)cc1-c1ccco1` returned a melting point of 218 to 221 °C. In turn, `COc1ccc(CCOc2ccc(NC(=O)c3cc(F)cc(N4CCOCC4)c3)c3ccccc23)cc1OC` gave a melting point of 73 to 75 °C.

With `COc1cc(NCCCN(C)Cc2ccccc2)ccc1C(N)=O`, the melting point lay within 116 to 118 °C. With `CCOC(=O)c1c(C)cc2c(c1C)c(=O)n(-c1ccccc1Cl)c(=O)n2CCCN(C)Cc1ccccc1`, the melting point fell in the range of 145 to 146 °C. For `Cc1cc2c(cc1Oc1ccc(C(=O)NNc3ccc4c(C)nn(C)c4n3)o1)C(C)(C)CC(C)C2(C)C` (centres undefined), the melting point lay within 169 to 170 °C. As to `COC(=O)CCC(=NOCc1ccc(OCc2nc(-c3ccco3)oc2C)c(OC)c1)c1ccccc1`, the melting point lay within 67 to 69 °C. Turning to `OC1(c2cccc3[nH]ccc23)CCN(CCOc2ccccc2)CC1`, the melting point was determined as 168 °C.

For `CN1C(=N)N(C)C(=Cc2c[nH]c3ccccc23)C1=O`, the melting point lay in the range of 232 to 233 °C. `CCOC(=NC(=O)Nc1ccc(OC(F)(F)F)cc1)N1Cc2ccccc2-c2ccccc2C1`: the melting point is 129 to 130 °C. As to `CC(C)n1nc(-c2c(-c3ccccc3)nc(N)nc2-n2cnc3ccccc32)ccc1=O`, the melting point was in the range of 242 to 244 °C. Molecule `CC(C)(C)COC(=O)C(C#N)=Cc1cc(O)c(O)c([N+](=O)[O-])c1` had a melting point of 173 to 179 °C. Take `CC(C)(C)c1cc(C(=O)NN)cc(C(C)(C)C)c1O`: the melting point was 187 to 188 °C. As for `CCC(Oc1ccc(C(C)(C)CC)cc1C(C)(C)CC)C(=O)Nc1cc(O)c(NC(=O)c2ccccc2)cc1Cl` (centres undefined), the melting point fell in the range of 190 to 191 °C. In turn, `Nc1ccc(C2CCc3ccccc3O2)cc1` (centres undefined) displayed a melting point of 85 to 87 °C.

Turning to `CN(C)c1nc(N(C)C)c2ccccc2n1`, the melting point was in the range of 74 to 76 °C.

Take `CCN1CCc2ccc(Nc3ncc(Cl)c(N[C@@H]4CCCC[C@H]4NC(C)=O)n3)cc2CC1`: the melting point was 248 to 250 °C. `O=[N+]([O-])c1ccc(CCS(=O)(=O)NCc2ccccc2)cc1` registered a melting point of 125 to 127 °C. `COc1ccc(C(=O)Nc2ccc(C(C)(C)C#N)cc2)cc1` returned a melting point of 169 to 171 °C. With `CCCCCCCCCCc1cc(CO)on1`, the melting point was in the range of 55 to 56 °C. Take `Cc1nnc(C(O)CCCCCCOc2ccccc2)o1` (centres undefined): the melting point lay within 50 to 52 °C. For `CCOc1ccc2nc(SC(C)(C(=O)O)c3ccccc3)sc2c1` (centres undefined), the melting point fell in the range of 152 to 153 °C.

For the molecule `CC1(C(=O)O)COc2ccccc2O1` (centres undefined), the melting point was 125 to 130 °C.

In turn, `CCOC(=O)C=Cc1ccc(N(CCOC)C(=O)c2ccncc2)cc1` yielded a melting point of 98.4 to 102 °C. `COc1cc(C(=O)NS(=O)(=O)c2ccccc2C)ccc1Cc1c(Cl)n(C)c2ccc(CC(C)NC(=O)N(C)C)cc12` (centres undefined) returned a melting point of 120 to 130 °C. In the case of `NC(=O)c1cccc2c1c1c(OCC(=O)O)ccc(Cl)c1n2Cc1ccccc1`, the melting point lay in the range of 240 to 242 °C. Regarding `Nc1ccc([N+](=O)[O-])cc1C(=O)c1ccccc1Cl`, the melting point fell in the range of 138 to 139 °C.

`CC(=O)C1CCC2C3CCC4CC(=O)CCC4(C)C3C(OC(=O)CCl)CC12C` (centres undefined) came in with a melting point of 133 to 135 °C. Turning to `CCCn1nc(C(C)C)c(C(=O)O)c1Cc1ccc(-c2ccccc2S(=O)(=O)NC(=O)OCC(C)C)c(F)c1`, the melting point was in the range of 77 to 82 °C. As for `Cc1nc2ccnn2c(Cl)c1CCCl`, the figure is 87 to 88 °C; as for `COc1ccc2c(=O)n3c(cc2c1)S(=O)(=O)CCC3`, 256 to 257 °C; as for `Nc1cnccc1N1CCc2ccccc21`, 89 °C. In turn, `C[C@H](NC(=O)[C@@H](CC(=O)O)NC(=O)c1ccccc1)C(=O)N1CCC[C@H]1C(=O)O` had a melting point of 161 to 163 °C. In turn, `COc1ccc(C(=O)Nc2ccc(C(C)=O)cc2)cc1C12CC3CC(CC(C3)C1)C2` came in with a melting point of 200 to 201 °C. `COCON=C(C(C)=O)C(=O)OC` gave a melting point of 115 to 120 °C. In the case of `CC(C)(C)OC(=O)N1CCc2c(n(CCO)c3cc(Cl)c(Cl)cc23)CC1`, the melting point is 130 to 133 °C. `N#Cc1c[nH]c(-c2ccccc2F)c1` showed a melting point of 158 to 160 °C. As to `CS(=O)(=O)c1nccc(-c2c(-c3ccc(F)cc3)nc3sccn23)n1`, the melting point was in the range of 197 to 198 °C.

With `COc1cc(Nc2c(C#N)cnc3cc4cc(OCCN5CCN(C)CC5)c(OC)cc4cc23)c(Cl)cc1F`, the melting point was 197 to 205 °C. `CON=C(N)Nc1nc(C)cc(C)n1` showed a melting point of 134 to 136 °C. `Cc1ccc(C)c(Cn2[nH]c(N)cc2=O)c1` had a melting point of 124 °C. In the case of `Cc1oc(C=Cc2ccc(Cl)cc2)nc1CC(=O)O` it was 157 to 158 °C. In the case of `CC1OC(=O)N(C(=O)NCCCN2CCC(c3ccc(F)cc3)CC2)C1c1ccc(F)c(F)c1` (centres undefined), the melting point was in the range of 108 to 112 °C.

In turn, `CCOC(=O)C(C#N)=C(c1ccc(F)cc1)c1ccc(F)cc1` had a melting point of 114 to 116 °C. For the molecule `N#CC(N)=C(C#N)N=Cc1cnn(-c2c(F)cc(F)cc2F)n1`, the melting point fell in the range of 213 to 215 °C. `CCc1ncnc(NC2CCc3cc(O)ccc3C2)c1Cl` (centres undefined) came in with a melting point of 178 °C. In turn, `Cc1oc(-c2ccc(C(F)(F)F)cc2)cc1C(=O)Nc1cccc(C=O)c1` came in with a melting point of 183 to 184 °C. As to `COc1ccc(Cc2cc(C3CCCN(C(=O)c4ccc5c(c4)OCO5)C3)nc(N)n2)cc1` (centres undefined), the melting point was 125 to 127 °C.

The molecule `Cc1cc2c(c(C)c1N)C(c1ccc(C(C)C)cc1)CO2` (centres undefined) came in with a melting point of 53 to 55 °C.

The molecule `COC(=O)c1cccc2oc(SCCCN3CCN(CC(=O)Nc4c(C(C)C)cccc4C(C)C)CC3)nc12` had a melting point of 132 to 133 °C. Turning to `CCOCC1=C(C(=O)OCC)C(c2ccc(OC)c(F)c2)C(C(=O)OCC)=C(C)N1` (centres undefined), the melting point is 120 °C. As for `NCCCC(O)c1ccccc1` (centres undefined), the figure is 94 to 96 °C. Molecule `CSc1ncc(C(=O)N(C)Cc2cc(C(F)(F)F)cc(C(F)(F)F)c2)c(-c2ccccc2)n1` came in with a melting point of 119 to 120 °C. The molecule `Cc1cc2c(-c3cccc(/C=C/C(=O)O)c3)c(CC(=O)Nc3ccc(Cl)cc3C(F)(F)F)c(=O)oc2cc1Cl` displayed a melting point of 191 to 194 °C. Consider `CC(C)(C)OC(=O)N1CCC(COc2ccc(N)cc2)CC1`, for which the melting point is 100 to 101 °C. In the case of `Cc1cc(CO)cc(C#N)n1` it was 136 to 138 °C. In turn, `CCn1nnnc1Cc1ccc(N)cc1` gave a melting point of 94 to 95 °C.

Take `CC(OCc1ccc(-c2ccccc2)cc1)(C(=O)O)C(F)(F)F` (centres undefined): the melting point lay within 80 to 81 °C. In the case of `CSC(C)(C)C(=O)N[C@@H](CSSC[C@H](NC(=O)C(C)(C)SC)C(=O)O)C(=O)O` it was 128 to 129 °C. On to `Cc1ccc2c(c1)Oc1ncc([N+](=O)[O-])cc1C(=O)N2C`, for which the melting point was in the range of 197 to 198 °C. In the case of `C[C@H](OCc1cc2cc(Cl)ccc2n1S(=O)(=O)c1ccc2ncsc2c1)C(=O)O` it was 82 °C; in that of `CC(C)Cn1cccc1C(N)=S`, 126 to 128 °C. As for `CNC(=S)C1c2cc([N+](=O)[O-])ccc2OC(C)(C)C1O` (centres undefined), the figure is 203 to 207 °C; as for `CCCCOC(=O)NC1CCN(c2c(F)cc3c(=O)c(C(=O)O)cn(C4CC4)c3c2F)C1` (centres undefined), 228 to 230 °C.

`NCCc1c[nH]c2ccc(C(N)=O)cc12` displayed a melting point of 173 to 176 °C. `O=C(C1CC1)N1CCCC1Cc1ccc(Cl)cc1` (centres undefined) came in with a melting point of 62 to 64 °C.

`COC(=O)N1c2cc(F)ccc2NC(=O)C1(C)C` showed a melting point of 166 to 168 °C. As for `CCOC(=O)C(C(=O)C(F)(F)F)=C(Cc1ccccc1)C(N)C(=O)OCC` (centres undefined), the figure is 63 to 65 °C.

`CC(C)(C)[C@H]1CC[C@@H](Nc2nnc(Cc3ccncc3)c3ccccc23)CC1` returned a melting point of 64 to 65 °C. On to `C[Si](C)(C)OCCNc1ccc(NCCO[Si](C)(C)C)c2c1C(=O)c1ccccc1C2=O`, for which the melting point was in the range of 123 to 126 °C. For the molecule `O=C(c1cccnc1)c1cc2cc(Br)ccc2o1`, the melting point is 144 to 145 °C. As for `Nc1cc(-c2noc(-c3cnn4c(C(F)(F)F)cc(-c5ccc(Cl)cc5)nc34)n2)ccn1`, the figure is 252 °C; as for `N#CC1CCCn2cccc21` (centres undefined), 47 to 49 °C. `O=C(O)Cc1ccc(Cc2n[nH]c3c2c(=O)n(-c2ccccc2)c2ncccc32)cc1` registered a melting point of 297 to 300 °C. For the molecule `Cc1cn(C(C)C(=O)Nc2ccccc2)nc1-c1ccccc1` (centres undefined), the melting point fell in the range of 79 to 82 °C. Take `CCN1c2ncccc2C(=O)Nc2c(C)cc(N3CCC(OC(C)=O)C3)nc21` (centres undefined): the melting point lay within 188 to 190 °C. Consider `COC[C@H](C)N1CCc2sc(Nc3ncc(F)cn3)nc2-c2c[nH]nc21`, for which the melting point fell in the range of 249 to 251 °C.
